{"source": "patent US20190054110A1", "about": "“MODULATORS OF CCR9 FOR TREATING TUMOR RESISTANCE TO IMMUNE RESPONSES” (DEUTSCHES KREBSFORSCHUNGSZENTRUM STIFTUNG DES ÖFFENTLICHEN …, priority 2016, published 2019)", "key": {"MCF7 cells": {"tested_on": "MCF7 cells", "assay": "Chromium-release cytotoxicity assay, MCF7 cells lysed by survivin-specific T cells", "format": "cell-based, human", "settings": "versus control / CCR9 knockdown", "protocol": "FIG. 1: CCR9 knockdown sensitizes tumor cells to immune attack (A) MCF7 cells were transfected with the described siRNA sequences and harvested after 72 h for mRNA and protein estimation using RT-PCR (upper) and immunoblot (lower) analysis, respectively. GAPDH and beta-actin were used as controls for RNA and protein normalization, respectively. (B) Luc-CTL cytotoxicity assay with PBMC-derived CTLs and bi-specific Ab as effector population and MCF7 as target cells, which were transfected with individual (s1-s4) or pooled CCR9 siRNA sequences. PD-L1 and non-specific control siRNAs were used as positive and negative controls, respectively, for CTL-mediated cytotoxicity. (C, D) Cr-release assay showing % specific lysis of MCF7 cells by survivin-specific T cells at different ratios upon CCR9 knockdown (C) or overexpression (D). MCF7 cells were transfected with either CCR9 siRNA s1 (Δ), pooled siRNA sequences (◯), positive control PD-L1 (□), and non-specific control siRNA (▪) (C) or with pCMV6-AC-His control vector (▪) and pCMV6-AC-His-CCR9 expression construct (∘) (D) 72 h prior to the assay. […] Error bars denote ±SEM, and statistical significance was calculated using the unpaired, two-tailed Student's t-test. […]"}, "CCR9+ tumor cells": {"tested_on": "CCR9+ tumor cells", "assay": "Transwell migration assay of CCR9+ tumor cells toward CCL25", "format": "cell-based"}}}
{"substance": "pertussis toxin", "values": [{"measurement": "MCF7 lysis by survivin-specific CTL", "setting": "MCF7 cells", "value": "did not elicit elevated tumor lysis"}, {"measurement": "migration of CCR9+ tumor cells toward CCL25", "setting": "CCR9+ tumor cells", "value": "inhibited"}]}
